Data on one compound can be found in patent US20260248799A1, “COMBINATIONS OF RETINALDEHYDE DEHYDROGENASE 1 (RALDH1) INHIBITORS AND IMMUNOSTIMULATORS AND METHODS USING SAME” (The Trustees of the University of Pennsylvania, priority 2023, published 2026).

Structures are written as SMILES.

The target in one experiment is T1, Progesterone PR-B (Homo sapiens, UniProt P06401).
T1 construct: Eurofins Cereps Panlabs (contract panel)
The experiment in a line: Safetyscreen: Progesterone PR-B. The format is binding. The conditions noted are these: read-out: % Inh. Progesterone PR-B.

Experiment [1] concerns the target T2, Serotonin (5-Hydroxytryptamine) 5-HT2C (Homo sapiens, UniProt P28335).
T2 construct: Eurofins Cereps Panlabs (contract panel)
The experiment in a line: Safetyscreen: 5-HT2C. The experiment is classed as binding. The conditions noted are these: read-out: % Inh. Serotonin (5-Hydroxytryptamine) 5-HT2C.

The target in the next experiment is T3, Cannabinoid CB2 (Homo sapiens, UniProt P34972).
T3 construct: purchased Eurofins Cereps Panlabs
T3 sequence (P34972 whole entry): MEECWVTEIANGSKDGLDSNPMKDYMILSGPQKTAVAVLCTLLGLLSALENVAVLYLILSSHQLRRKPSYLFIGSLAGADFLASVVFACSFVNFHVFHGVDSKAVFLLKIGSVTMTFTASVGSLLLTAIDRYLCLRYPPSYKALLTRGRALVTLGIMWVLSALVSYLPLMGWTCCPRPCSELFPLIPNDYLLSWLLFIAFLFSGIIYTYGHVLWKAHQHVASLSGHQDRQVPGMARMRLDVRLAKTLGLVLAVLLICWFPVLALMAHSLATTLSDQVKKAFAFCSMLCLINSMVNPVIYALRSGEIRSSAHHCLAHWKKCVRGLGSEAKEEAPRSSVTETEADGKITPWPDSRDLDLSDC
The experiment in a line: Safetyscreen: CB2. The format is binding. The conditions noted are these: read-out: % Inh. Cannabinoid CB2.

Another experiment deals with T4, Muscarinic M2 (Homo sapiens, UniProt P08172).
T4 construct: Eurofins Cereps Panlabs (contract panel)
Description: Safetyscreen: Muscarinic M2. The conditions noted are these: read-out: % Inh. Muscarinic M2. The format is binding.

Another experiment addresses T5, Vasopressin V1A (Homo sapiens, UniProt P37288).
T5 construct: purchased Eurofins Cereps Panlabs
The experiment in a line: Safetyscreen: Vasopressin V1A. The following applies: read-out: % Inh. Vasopressin V1A. The format is binding.

The subject of the next experiment is monocytes in Huh7 tumors. The experiment in a line: Differentiation of human monocytes injected into Huh7 tumors in NU/J mice. The format is in vivo, mouse. The conditions noted are these: 10 mg/kg, i.p, daily. The text has this:
FIGS. 22A-22E: RALDH1 inhibition blocks RA-mediated effects of HCC on monocyte differentiation. FIGS. 22A-22B: Circulating primary human monocytes from donors (FIG. 22A) or murine monocytes from bone marrow (FIG. 22B) were cocultured with SNU398 (Human HCC) cells or treated with SNU398-conditioned media (CM) in a DC differentiation system (GM-CSF and IL-4). Two-color histograms show the frequencies of DCs (CD11c^+CD1a^+ for human and CD11c^+MHCII^+ for mouse). The presence of SNU398 or its CM suppressed DC differentiation, which is reversed when SNU398 cells are treated with C86. Three or more independent experiments were performed with at least three replicates per experimental group. Unpaired t test, two-tailed. FIG. 22C: Huh7 (human HCC) cells were subcutaneously injected into flanks of NU/J mice. 12 days later the tumor size was about 50 mm^3 and C86 or vehicle treatment (10 mg/kg, i.p, daily injection) was started. […] The frequencies of the host (murine) DCs (CD45^+F4/80^−CD11C^+MHCII-high) and macrophages (CD45^+F4/80^+) are quantified in a bar graph. […] Shown are the representative FCM plot (histogram) and DC quantification (bar graph). […]
Monocytes were isolated (as described above) from mouse bone marrow of C57BL/6 mice and counted. […] Tumors were harvested at specified time points and analyzed by flow cytometry. […]

In experiment [2] the test system is Glutamate, NMDA, Polyamine. The experiment in a line: Safetyscreen: NMDA, Polyamine. The experiment is classed as binding, rat. The following applies: 10 μM.
For a further experiment, the target named is T6, Adrenergic β1 (Homo sapiens, UniProt P08588).
T6 construct: Eurofins Cerep Panlabs (contract panel)
Description: Safetyscreen: Adrenergic β1. The format is binding. The following applies: read-out: % Inh. Adrenergic β1.

The target of the next experiment is T7, Opiate μ(OP3, MOP) (Homo sapiens, UniProt P35372).
T7 construct: Eurofins Cereps Panlabs (contract panel)
Description: Safetyscreen: Opiate μ. The experiment is classed as binding. The following applies: read-out: % Inh. Opiate μ(OP3, MOP).

A further experiment has as its target T8, Melanocortin MC4 (Homo sapiens, UniProt P32245).
T8 construct: Eurofins Cereps Panlabs (contract panel)
Description: Safetyscreen: MC4. The conditions noted are these: read-out: % Inh. Melanocortin MC4. The experiment is classed as binding.

Another experiment concerns the target T9, Monoamine Oxidase MAO-A (Homo sapiens, UniProt P21397).
T9 construct: Eurofins Cerep Panlabs (contract panel)
The experiment in a line: Safetyscreen: MAO-A. The experiment is classed as biochemical. The following applies: read-out: % Inh. Monoamine Oxidase MAO-A.

The next experiment concerns the target T10, Adrenergic α2B (Homo sapiens, UniProt P18089).
T10 construct: Eurofins Cerep Panlabs (contract panel)
Description: Safetyscreen: Adrenergic α2B. The experiment is classed as binding. The following applies: read-out: % Inh. Adrenergic α2B.

The target of the next experiment is T11, Potassium Channel [KATP] (Cricetus cricetus, UniProt Q09427).
T11 construct: Eurofins Cereps Panlabs (contract panel)
T11 sequence (Q09427 whole entry): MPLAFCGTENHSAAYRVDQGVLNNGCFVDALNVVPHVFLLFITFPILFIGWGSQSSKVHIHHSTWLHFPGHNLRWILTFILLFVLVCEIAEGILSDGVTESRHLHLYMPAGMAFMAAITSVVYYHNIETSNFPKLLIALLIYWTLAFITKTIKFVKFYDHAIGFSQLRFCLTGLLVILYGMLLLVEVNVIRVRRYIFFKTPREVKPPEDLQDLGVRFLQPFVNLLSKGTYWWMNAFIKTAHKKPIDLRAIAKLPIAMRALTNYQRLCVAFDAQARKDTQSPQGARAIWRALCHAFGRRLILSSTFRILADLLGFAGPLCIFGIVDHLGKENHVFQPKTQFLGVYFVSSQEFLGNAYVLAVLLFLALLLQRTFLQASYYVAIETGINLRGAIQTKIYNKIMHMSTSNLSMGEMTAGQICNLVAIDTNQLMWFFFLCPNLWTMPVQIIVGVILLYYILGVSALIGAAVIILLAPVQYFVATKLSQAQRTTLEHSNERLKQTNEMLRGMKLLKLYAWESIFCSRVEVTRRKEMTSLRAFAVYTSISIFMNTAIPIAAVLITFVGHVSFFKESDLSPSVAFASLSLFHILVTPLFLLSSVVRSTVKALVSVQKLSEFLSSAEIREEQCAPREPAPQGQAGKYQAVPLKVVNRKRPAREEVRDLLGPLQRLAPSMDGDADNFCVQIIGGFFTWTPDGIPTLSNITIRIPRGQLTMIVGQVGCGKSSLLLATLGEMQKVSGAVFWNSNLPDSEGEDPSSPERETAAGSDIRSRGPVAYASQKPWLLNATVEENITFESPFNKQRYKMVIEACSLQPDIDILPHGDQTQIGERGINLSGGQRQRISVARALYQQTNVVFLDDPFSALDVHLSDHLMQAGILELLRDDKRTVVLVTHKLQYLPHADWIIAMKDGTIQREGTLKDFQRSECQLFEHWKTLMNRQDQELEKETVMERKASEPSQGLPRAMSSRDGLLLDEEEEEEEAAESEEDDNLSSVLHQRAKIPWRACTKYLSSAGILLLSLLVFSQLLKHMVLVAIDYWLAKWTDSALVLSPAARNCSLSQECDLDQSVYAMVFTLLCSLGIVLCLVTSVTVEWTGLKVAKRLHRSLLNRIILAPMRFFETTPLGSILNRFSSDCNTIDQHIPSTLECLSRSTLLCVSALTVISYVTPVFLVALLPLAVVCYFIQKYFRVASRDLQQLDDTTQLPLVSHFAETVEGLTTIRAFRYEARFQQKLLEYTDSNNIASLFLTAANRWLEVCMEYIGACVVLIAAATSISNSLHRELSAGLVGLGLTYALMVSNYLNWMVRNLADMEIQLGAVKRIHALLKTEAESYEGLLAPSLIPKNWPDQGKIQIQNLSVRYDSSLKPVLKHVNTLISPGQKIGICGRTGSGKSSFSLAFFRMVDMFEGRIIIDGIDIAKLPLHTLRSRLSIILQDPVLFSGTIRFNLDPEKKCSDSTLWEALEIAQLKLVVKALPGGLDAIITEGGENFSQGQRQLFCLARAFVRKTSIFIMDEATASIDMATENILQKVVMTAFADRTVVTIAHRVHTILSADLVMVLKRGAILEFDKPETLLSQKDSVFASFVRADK
Description: Safetyscreen: Potassium Channel KATP. The conditions noted are these: read-out: % Inh. Potassium Channel [KATP]. The experiment is classed as binding, hamster.

The target in experiment [3] is T12, Serotonin (5-Hydroxytryptamine) 5-HT3 (Homo sapiens, UniProt P46098).
T12 construct: Eurofins Cereps Panlabs (contract panel)
T12 sequence (P46098 24-478): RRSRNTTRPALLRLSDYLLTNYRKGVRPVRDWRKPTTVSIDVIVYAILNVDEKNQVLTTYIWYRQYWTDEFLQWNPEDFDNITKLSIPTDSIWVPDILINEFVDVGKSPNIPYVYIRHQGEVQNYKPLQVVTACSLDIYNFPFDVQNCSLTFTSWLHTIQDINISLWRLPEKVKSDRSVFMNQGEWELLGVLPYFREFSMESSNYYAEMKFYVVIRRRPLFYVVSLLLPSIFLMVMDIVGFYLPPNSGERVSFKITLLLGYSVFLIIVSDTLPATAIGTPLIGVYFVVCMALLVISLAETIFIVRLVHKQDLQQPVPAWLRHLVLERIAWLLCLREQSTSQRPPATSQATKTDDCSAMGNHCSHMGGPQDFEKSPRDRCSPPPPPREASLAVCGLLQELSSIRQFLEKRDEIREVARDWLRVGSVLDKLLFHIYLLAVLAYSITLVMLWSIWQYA
The experiment in a line: Safetyscreen: 5-HT3. The experiment is classed as binding. The conditions noted are these: read-out: % Inh. Serotonin (5-Hydroxytryptamine) 5-HT3.

The target of experiment [4] is T13, Peptidase, Angiotensin Converting Enzyme (Oryctolagus cuniculus, UniProt P12822).
T13 construct: Eurofins Cerep Panlabs (contract panel)
Description: Safetyscreen: ACE. The experiment is classed as biochemical, rabbit. The conditions noted are these: read-out: % Inh. Peptidase, Angiotensin Converting Enzyme.

Another experiment deals with T14, PPARγ (Homo sapiens, UniProt P37231).
T14 construct: Eurofins Cereps Panlabs (contract panel)
The experiment in a line: Safetyscreen: PPARγ. The format is binding.

In a further experiment the target is T15, Adrenergic α1B (Rattus norvegicus, UniProt P15823).
T15 construct: Eurofins Cerep Panlabs (contract panel)
T15 sequence (P15823 whole entry): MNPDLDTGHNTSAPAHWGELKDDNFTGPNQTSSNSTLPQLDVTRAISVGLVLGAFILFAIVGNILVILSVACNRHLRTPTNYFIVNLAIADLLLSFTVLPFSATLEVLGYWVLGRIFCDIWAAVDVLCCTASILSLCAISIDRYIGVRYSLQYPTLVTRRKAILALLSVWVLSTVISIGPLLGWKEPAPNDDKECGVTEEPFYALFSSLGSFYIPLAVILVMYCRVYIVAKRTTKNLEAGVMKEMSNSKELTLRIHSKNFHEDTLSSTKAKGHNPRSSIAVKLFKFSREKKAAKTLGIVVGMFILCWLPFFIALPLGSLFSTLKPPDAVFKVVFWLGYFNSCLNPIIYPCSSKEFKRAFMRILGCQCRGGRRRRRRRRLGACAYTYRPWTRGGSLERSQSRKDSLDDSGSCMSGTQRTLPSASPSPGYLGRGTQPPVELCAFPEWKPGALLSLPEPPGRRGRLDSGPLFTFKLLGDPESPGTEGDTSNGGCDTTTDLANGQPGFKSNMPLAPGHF
The experiment in a line: Safetyscreen: Adrenergic α1B. The following applies: read-out: % Inh. Adrenergic α1B. The format is binding.

For a further experiment, the target named is T16, Neuropeptide Y Y1 (Homo sapiens, UniProt P25929).
T16 construct: Eurofins Cereps Panlabs (contract panel)
T16 sequence (P25929 whole entry): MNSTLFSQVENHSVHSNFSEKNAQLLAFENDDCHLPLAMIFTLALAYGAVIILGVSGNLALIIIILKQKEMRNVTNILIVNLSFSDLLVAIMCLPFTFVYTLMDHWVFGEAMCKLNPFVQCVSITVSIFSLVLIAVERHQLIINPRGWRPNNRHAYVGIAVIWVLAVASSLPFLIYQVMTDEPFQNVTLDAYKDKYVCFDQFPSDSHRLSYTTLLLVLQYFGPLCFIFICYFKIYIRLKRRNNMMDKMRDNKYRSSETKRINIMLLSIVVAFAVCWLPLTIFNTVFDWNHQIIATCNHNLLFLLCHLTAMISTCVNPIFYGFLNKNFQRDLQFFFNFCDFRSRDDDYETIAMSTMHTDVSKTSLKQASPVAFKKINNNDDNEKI
Description: Safetyscreen: Neuropeptide Y Y1. The experiment is classed as binding. The following applies: read-out: % Inh. Neuropeptide Y Y1.

The target of a further experiment is T17, Opiate κ(OP2, KOP) (Homo sapiens, UniProt P41145).
T17 construct: Eurofins Cereps Panlabs (contract panel)
Description: Safetyscreen: Opiate κ. The following applies: read-out: % Inh. Opiate κ(OP2, KOP). The format is binding.

T10 sequence (P18089 whole entry): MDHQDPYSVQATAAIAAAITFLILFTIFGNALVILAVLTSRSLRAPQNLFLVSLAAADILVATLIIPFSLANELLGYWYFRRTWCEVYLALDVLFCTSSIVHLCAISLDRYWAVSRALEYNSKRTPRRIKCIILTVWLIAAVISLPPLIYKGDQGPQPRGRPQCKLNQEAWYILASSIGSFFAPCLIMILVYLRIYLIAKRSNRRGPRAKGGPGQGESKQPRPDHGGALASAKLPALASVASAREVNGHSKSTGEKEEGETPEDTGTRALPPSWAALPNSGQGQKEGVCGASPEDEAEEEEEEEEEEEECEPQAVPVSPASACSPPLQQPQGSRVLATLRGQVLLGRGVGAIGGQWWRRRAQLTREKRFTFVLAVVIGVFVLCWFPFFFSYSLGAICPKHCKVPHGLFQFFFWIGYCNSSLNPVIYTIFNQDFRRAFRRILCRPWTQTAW
T9 sequence (P21397 whole entry): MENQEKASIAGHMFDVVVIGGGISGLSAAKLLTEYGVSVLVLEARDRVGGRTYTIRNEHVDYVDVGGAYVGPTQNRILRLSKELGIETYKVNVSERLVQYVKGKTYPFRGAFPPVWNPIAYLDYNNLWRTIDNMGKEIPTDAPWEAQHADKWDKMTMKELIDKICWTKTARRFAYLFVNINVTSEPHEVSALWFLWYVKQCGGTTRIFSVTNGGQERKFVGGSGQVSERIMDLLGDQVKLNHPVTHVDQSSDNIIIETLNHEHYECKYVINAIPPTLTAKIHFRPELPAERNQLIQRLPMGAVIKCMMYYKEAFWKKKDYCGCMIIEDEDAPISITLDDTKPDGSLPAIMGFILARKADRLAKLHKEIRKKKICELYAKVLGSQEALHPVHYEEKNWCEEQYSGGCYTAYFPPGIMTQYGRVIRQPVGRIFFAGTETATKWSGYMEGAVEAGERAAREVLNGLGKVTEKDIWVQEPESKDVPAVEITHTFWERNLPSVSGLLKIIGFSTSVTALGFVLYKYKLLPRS
T5 sequence (P37288 whole entry): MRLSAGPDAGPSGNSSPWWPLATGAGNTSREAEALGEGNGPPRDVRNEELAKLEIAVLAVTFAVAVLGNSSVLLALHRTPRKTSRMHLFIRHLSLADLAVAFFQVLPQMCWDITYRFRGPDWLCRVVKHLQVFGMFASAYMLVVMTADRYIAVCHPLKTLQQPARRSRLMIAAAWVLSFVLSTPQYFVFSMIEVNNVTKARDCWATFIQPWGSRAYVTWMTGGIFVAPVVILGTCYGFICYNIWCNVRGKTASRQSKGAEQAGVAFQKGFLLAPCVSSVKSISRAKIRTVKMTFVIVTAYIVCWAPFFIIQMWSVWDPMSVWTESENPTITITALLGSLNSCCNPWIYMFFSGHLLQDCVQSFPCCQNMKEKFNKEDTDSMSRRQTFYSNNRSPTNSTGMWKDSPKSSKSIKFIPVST
T8 sequence (P32245 whole entry): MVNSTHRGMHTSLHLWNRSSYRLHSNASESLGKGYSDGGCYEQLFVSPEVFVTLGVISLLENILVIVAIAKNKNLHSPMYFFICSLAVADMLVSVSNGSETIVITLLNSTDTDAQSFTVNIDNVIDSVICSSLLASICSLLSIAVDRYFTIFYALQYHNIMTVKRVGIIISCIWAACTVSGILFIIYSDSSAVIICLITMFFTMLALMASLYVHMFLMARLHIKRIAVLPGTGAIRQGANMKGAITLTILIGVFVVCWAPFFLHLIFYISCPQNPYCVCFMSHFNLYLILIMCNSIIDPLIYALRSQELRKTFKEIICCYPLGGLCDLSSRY

As to `CS(=O)(=O)N1CCN(C(=O)c2cnc3ccc(F)cc3c2N2CCC(C#N)(c3ccccc3)CC2)CC1` [Compound C-86, 1-(6-fluoro-3-(4-(methylsulfonyl)piperazine-1-carbonyl)quinolin-4-yl)-4-phenylpiperidine-4-carbonitrile], the inhibition at 10 µM on Progesterone PR-B was 1%; in [1], 22%; on Cannabinoid CB2, 21%; on Muscarinic M2 it was 4%; on Vasopressin V1A it was -13%; on Adrenergic β1, 3%. Also, the inhibition at 10 µM was 19% on Opiate μ(OP3, MOP); 13% at Melanocortin MC4; 2% on Monoamine Oxidase MAO-A; 9% at Adrenergic α2B; 28% at Potassium Channel [KATP]; 2% in [3]. In addition, the inhibition at 10 µM is -6% in experiment [4]; 12% at PPARγ; 6% on Adrenergic α1B; 11% on Neuropeptide Y Y1; 41% at Opiate κ(OP2, KOP). Also, the “frequency of host (murine) DCs and macrophages in the TME” value with monocytes in Huh7 tumors was “increased frequency of DCs and reduced frequency of macrophages”. In the experiment with monocytes in Huh7 tumors (five days after monocyte injection), the “DC differentiation from transplanted human monocytes” value is “increased DC differentiation”. Further, the “% Inh. Glutamate, NMDA, Polyamine” value in [2] is 1%.
